Read-outs that look alike come from different tables or passages of the source. Residues, ends and D or L forms follow the SMILES beside them.
Columns and labels:
[1] = MTT cytotoxicity assay, MCF-7 cells; conditions: human, MCF-7 adenocarcinoma cells
Experimental: (§1) Next, the conjugates and their parent agents were evaluated in a cytotoxicity assay. Human glioblastoma (SNB19, T98G) and adenocarcinoma (MCF-7) cell lines were used in this study.
(§2) Human cancer cells of the SNB19, T98G (cells of human glioblastoma), and MCF-7 (adenocarcinoma) lines, along with cells derived from the kidney of an African green monkey (Vero), were used in this study. These cell lines were obtained from the cell collection of the State Research Center for Virology and Biotechnology “Vector” of Rospotrebnadzor, Koltsovo, Novosibirsk Region. They were cultured in DMEM/F12 medium containing 10% foetal bovine serum, L-glutamine (2 mmol/L), and gentamicin (80 µg/mL) in a CO2 incubator at 37 °C. The tested compounds were dissolved in DMSO (4 and 5) or H2O (6, 7, and 8) and added to the cellular culture at the required concentrations. Three wells were used for each concentration. The cells that were incubated without the compounds were used as controls. Cells were placed in 96-well microplates and cultivated at 37 °C in 5% CO2/95% air for 48 h. The cell viability was assessed through an MTT [3-(4,5-dimethylthiazol-2-yl)-2,5-phenyl-2H-tetrazolium bromide] conversion assay, where 1% MTT was added to each well. Four hours later, the medium was removed, leaving the formazan crystals, and isopropanol was added and mixed for 15 min. The optical density of the samples was measured on a TECAN Sunrise multi-well spectrophotometer at a wavelength of 570 nm, with a reference of 670 nm. The 50% cytotoxic dose (GI50) of each compound (i.e., the compound concentration that lowers the amount of cells to 50% in a culture, or decreases the optical density twofold as compared to the control wells) was calculated from the obtained data. Statistical processing of the results was performed using the Microsoft Excel-2007, […] 6.0, and GraphPad Prism 5.0 programs.

[2] = system: MCF-7 (adenocarcinoma) cells; assay: MTT cytotoxicity assay, MCF-7 cells; conditions: for Cytotoxic dose GI80 / Cytotoxic dose GI90: MCF-7, 48 h, MTT; for GI50: Homo sapiens, MCF7, 48 h, read-out: Cytotoxic dose GI50
Experimental: as §1, §2

[3] = MTT cytotoxicity assay, SNB19 cells; conditions: human, SNB19 glioblastoma cells
Experimental: as §1, §2

[4] = system: SNB19 glioblastoma cells; assay: MTT cytotoxicity assay, SNB19 cells; conditions: for Cytotoxic dose GI80 / Cytotoxic dose GI90: SNB19, 48 h, MTT; for GI50: Homo sapiens, SNB-19, 48 h, read-out: Cytotoxic dose GI50
Experimental: as §1, §2

[5] = target: T1, TDP1 (Homo sapiens, UniProt Q9NUW8); assay: biochemical; format: biochemical; conditions: for Increase in TDP1 IC50 compared to parent TDP1 inhibitor: conjugate 7 vs 4, conjugate 8 vs 5
T1 construct: made in house; host or cells: E. coli
Experimental: These conjugates and their individual components were tested in a real-time fluorescent assay of TDP1 inhibition.
Recombinant TDP1 protein was expressed in E. coli (the pET 16B plasmid containing TDP1 cDNA was kindly provided by Dr. K.W. Caldecott, University of Sussex, United Kingdom) and isolated as described in [60]. The final volume (200 μL) of the reaction mixture contained TDP1 reaction buffer (50 mM Tris-HCl, pH 8.0, 50 mM NaCl, 7 mM β-mercaptoethanol), 50 nM oligonucleotide substrate, and varied concentrations of the tested compounds. Purified TDP1 was added at a final concentration of 1.5 nM. The TDP1 reaction mixtures were incubated at a constant temperature of 26 °C in a POLARstar OPTIMA fluorimeter (BMG LABTECH, Offenburg, Germany). The fluorescence intensity was measured (Ex. 485/Em. 520 nm) every 1 min for 10 minutes. The efficiency of TDP1 inhibition was evaluated by comparing the rate of increase in the fluorescence of the biosensor in the presence of compound 4 or 5 to that of DMSO (1.5%) in control wells. IC50 values were determined using an eleven-point concentration response curve by MARS Data Analysis 2.0 (BMG LABTECH), and the slope during the linear phase was calculated. The IC50 measurements were carried out in at least three independent experiments.

[6] = MTT cytotoxicity assay, non-malignant Vero cells; conditions: African green monkey
Source text: (§3) Against the T98G glioblastoma cells, the conjugation yields activities that are intermediate between those of the usnic acid and peptide components for both the hydrazinothiazole- and benzylidenefuranone-based candidates (4 and 5, respectively).
as §2

[7] = system: Vero cells; assay: MTT cytotoxicity assay, non-malignant Vero cells; conditions: Vero, 48 h, MTT
Source text: as §3, §2

[8] = MTT cytotoxicity assay, T98G cells; conditions: human
Experimental: as §1, §2

[9] = system: T98G glioblastoma cells; assay: MTT cytotoxicity assay, T98G cells; conditions: T98G, 48 h; for Cytotoxic dose GI80 / Cytotoxic dose GI90: MTT; for GI50: Homo sapiens, read-out: Cytotoxic dose GI50
Experimental: as §1, §2

[10] = target: Tyrosyl-DNA-phosphodiesterase 1 (TDP1); conditions: Figure 1; cited from earlier work
[11] = Solubility in water / DMSO; format: physicochemical; conditions: water vs DMSO
Source text: Three wells were used for each concentration.

[12] = system: MCF-7 cells; conditions: native L-K6 sequence; read-out: IC50 (cytotoxicity of native sequence); cited from earlier work
[13] = recombinant TDP1 1.5 nM, 50 nM substrate, 26 °C
[14] = Vero cells (non-malignant kidney cell line)

T1 sequence (Q9NUW8 whole entry): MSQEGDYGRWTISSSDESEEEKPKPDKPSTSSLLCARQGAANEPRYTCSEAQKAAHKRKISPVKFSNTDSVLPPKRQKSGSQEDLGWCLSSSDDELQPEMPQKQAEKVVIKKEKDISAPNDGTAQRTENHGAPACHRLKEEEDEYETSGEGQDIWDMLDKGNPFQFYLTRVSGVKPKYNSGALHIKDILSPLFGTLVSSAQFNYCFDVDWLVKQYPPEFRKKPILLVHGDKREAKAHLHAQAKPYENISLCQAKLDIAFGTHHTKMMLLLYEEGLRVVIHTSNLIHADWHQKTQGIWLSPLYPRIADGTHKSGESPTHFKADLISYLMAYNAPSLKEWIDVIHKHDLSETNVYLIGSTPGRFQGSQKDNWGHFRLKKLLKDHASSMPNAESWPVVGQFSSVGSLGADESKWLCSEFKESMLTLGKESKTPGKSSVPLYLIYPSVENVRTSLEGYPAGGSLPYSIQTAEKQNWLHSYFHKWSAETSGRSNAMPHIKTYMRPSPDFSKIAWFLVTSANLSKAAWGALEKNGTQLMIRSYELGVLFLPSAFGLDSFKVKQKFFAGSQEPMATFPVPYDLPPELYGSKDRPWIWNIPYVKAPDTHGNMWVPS

| Molecule | GI50 at 48 h [1] [µM] | Cytotoxic dose GI80 [2] [µM] | Cytotoxic dose GI90 [2] [µM] | GI50 at 48 h [3] [µM] | Cytotoxic dose GI80 [4] [µM] | Cytotoxic dose GI90 [4] [µM] | GI50 at 48 h ([6]; Vero cells) [µM] | Cytotoxic dose GI80 [7] [µM] | Cytotoxic dose GI90 [7] [µM] | GI50 at 48 h [8] [µM] | Cytotoxic dose GI80 [9] [µM] | Cytotoxic dose GI90 [9] [µM] | IC50 [10] [µM] | other results |
| --- | --- | --- | --- | --- | --- | --- | --- | --- | --- | --- | --- | --- | --- | --- |
| CC[C@H](C)[C@H](NC(=O)CNN)C(=O)N[C@@H](CCCCN)C(=O)N[C@@H](CCCCN)C(=O)N[C@H](C(=O)N[C@@H](CC(C)C)C(=O)N[C@@H](CO)C(=O)N[C@@H](CCCCN)C(=O)N[C@H](C(=O)N[C@@H](CCCCN)C(=O)N[C@@H](CCCCN)C(=O)N[C@@H](CC(C)C)C(=O)N[C@@H](CC(C)C)C(=O)N[C@@H](CCCCN)C(N)=O)[C@@H](C)CC)[C@@H](C)CC [Compound 6] (HELM PEPTIDE1{[NNCC(=O)[*:2]].I.K.K.I.L.S.K.I.K.K.L.L.K.[am]}$$$$V2.0) | 39 ± 6.08 | 81 ± 16 | >100 | > 100 | >100 | >100 | 64 ± 13.7 | >100 | >100 | > 100 | >100 | >100 | – | IC50 [5, 13]: 1.8 ± 0.6 µM |
| CC(=O)C1=C(O)C=C2Oc3c(C(=O)CSC#N)c(O)c(C)c(O)c3[C@@]2(C)C1=O [Compound 3, reference compound] | – | – | – | – | – | – | – | – | – | – | – | – | 1.16 | – |
| CC(=O)C1=C(O)C=C2Oc3c(-c4csc(N/N=C/c5ccc(Br)cc5)n4)c(O)c(C)c(O)c3[C@@]2(C)C1=O [Compound 4] | – | 4.7 ± 0.21 | 5.5 ± 0.41 | – | 61 ± 1.78 | 83 ± 1.87 | – | 48 ± 16.76 | >100 | – | 51 ± 1.08 | 90 ± 3.94 | 0.026 | GI50 [2]: 2.8 ± 0.07 µM; GI50 [4]: 20.5 ± 2.27 µM; IC50 [5]: 0.026 ± 0.011 µM; GI50 at 48 h [6, 14]: 4.1 ± 1.66 µM; GI50 [9]: 10.1 ± 0.67 µM; Solubility [11]: require DMSO for solubility |
| CC[C@H](C)[C@H](NC(=O)Cn1nc(C)c2c1C=C1Oc3c4c(c(C)c(O)c3[C@@]1(C)C2=O)O/C(=C\c1ccc(Br)cc1)C4=O)C(=O)N[C@@H](CCCCN)C(=O)N[C@@H](CCCCN)C(=O)N[C@H](C(=O)N[C@@H](CC(C)C)C(=O)N[C@@H](CO)C(=O)N[C@@H](CCCCN)C(=O)N[C@H](C(=O)N[C@@H](CCCCN)C(=O)N[C@@H](CCCCN)C(=O)N[C@@H](CC(C)C)C(=O)N[C@@H](CC(C)C)C(=O)N[C@@H](CCCCN)C(N)=O)[C@@H](C)CC)[C@@H](C)CC [Compound 8] (HELM PEPTIDE1{[Cc1nn(CC(=O)[*:2])c2c1C(=O)[C@@]1(C)C(=C2)Oc2c3c(c(C)c(O)c21)O/C(=C\c1ccc(Br)cc1)C3=O].I.K.K.I.L.S.K.I.K.K.L.L.K.[am]}$$$$V2.0) | 36 ± 1.24 | 72 ± 2.4 | >100 | 16.5 ± 0.35 | 56 ± 0.7 | 85 ± 2.32 | 18 ± 3.18 | >100 | >100 | 38 ± 1.22 | 80 ± 2.86 | >100 | – | GI50 at 48 h ([3]; Cytotoxic dose GI50, SNB19, 48 h, MTT): 16 µM; Increase in TDP1 IC50 compared to parent TDP1 inhibitor [5]: ~2.3 fold |
| CC[C@H](C)[C@H](NC(=O)Cn1nc(C)c2c1C=C1Oc3c(-c4csc(N/N=C/c5ccc(Br)cc5)n4)c(O)c(C)c(O)c3[C@@]1(C)C2=O)C(=O)N[C@@H](CCCCN)C(=O)N[C@@H](CCCCN)C(=O)N[C@H](C(=O)N[C@@H](CC(C)C)C(=O)N[C@@H](CO)C(=O)N[C@@H](CCCCN)C(=O)N[C@H](C(=O)N[C@@H](CCCCN)C(=O)N[C@@H](CCCCN)C(=O)N[C@@H](CC(C)C)C(=O)N[C@@H](CC(C)C)C(=O)N[C@@H](CCCCN)C(N)=O)[C@@H](C)CC)[C@@H](C)CC [Compound 7] (HELM PEPTIDE1{[Cc1nn(CC(=O)[*:2])c2c1C(=O)[C@@]1(C)C(=C2)Oc2c(-c3csc(N/N=C/c4ccc(Br)cc4)n3)c(O)c(C)c(O)c21].I.K.K.I.L.S.K.I.K.K.L.L.K.[am]}$$$$V2.0) | 65 ± 15.3 | >100 | >100 | 18 ± 0.35 | 68 ± 3.34 | >100 | 33 ± 3.53 | >100 | >100 | 42 ± 3.02 | 82 ± 1.78 | >100 | – | Increase in TDP1 IC50 compared to parent TDP1 inhibitor [5]: approximately 6.5 fold |
| L-K6 (IKKILSKIKKLLK; HELM PEPTIDE1{[NNCC(=O)[*:2]].I.K.K.I.L.S.K.I.K.K.L.L.K.[am]}$$$$V2.0; N-terminus assumed; SMILES CC[C@H](C)[C@H](NC(=O)CNN)C(=O)N[C@@H](CCCCN)C(=O)N[C@@H](CCCCN)C(=O)N[C@H](C(=O)N[C@@H](CC(C)C)C(=O)N[C@@H](CO)C(=O)N[C@@H](CCCCN)C(=O)N[C@H](C(=O)N[C@@H](CCCCN)C(=O)N[C@@H](CCCCN)C(=O)N[C@@H](CC(C)C)C(=O)N[C@@H](CC(C)C)C(=O)N[C@@H](CCCCN)C(N)=O)[C@@H](C)CC)[C@@H](C)CC) | – | – | – | – | – | – | – | – | – | – | – | – | – | IC50 [12]: 23 µM |
| CC(=O)C1=C(O)C=C2Oc3c4c(c(C)c(O)c3[C@@]2(C)C1=O)O/C(=C\c1ccc(Br)cc1)C4=O [Compound 5] | – | 3.9 ± 0.87 | 4.7 ± 1.59 | – | >100 | >100 | – | >100 | >100 | – | >100 | >100 | 0.15 | GI50 [2]: 2.2 ± 0.31 µM; GI50 [4]: > 100 µM; IC50 [5, 13]: 0.15 ± 0.03 µM; GI50 at 48 h [6, 14]: > 100 µM; GI50 [9]: 21 ± 2.6 µM; Solubility [11]: require DMSO for solubility |
| CC(=O)c1c(O)c(C)c(O)c2c1OC1=CC(=O)/C(=C(/C)NCCCc3cc(C(C)(C)C)c(O)c(C(C)(C)C)c3)C(=O)[C@@]12C [Compound 2, reference compound] | – | – | – | – | – | – | – | – | – | – | – | – | 0.16 | – |

Source: publication PMC11594562, “Novel Peptide–Drug Conjugates with Dual Anticancer Activity” (International Journal of Molecular Sciences, 2024)
